{"source": "patent EP0591378B1", "about": "“METHOD OF PREVENTING AND TREATING CHEMOTHERAPY-INDUCED ALOPECIA” (Hairbiotech, Inc., priority 1991, dated 1993)", "key": {"[1]": {"system": "Cytoxan/Adriamycin-Induced Alopecia", "assay": "Alopecia induced by Cytoxan/Adriamycin combination in young rats", "type": "in vivo, Sprague Dawley rats", "experimental": "Eight 4-day old Sprague Dawley rats were randomized in two groups of 4 rats each. […] Group II received buffer injections and served as controls. One day after stopping EGF or buffer injections all rats received Cytoxan 25 mg/kg i.p. x 1 day and Adriamycin 2.5 mg/kg i.p. x 3 days. In Group II, all rats had 3+ alopecia over head and neck area. In contrast, in Group I one rat had mild alopecia, one rat minimal alopecia, and two rats no detectable alopecia over head and neck. (FIGURE 5).\n(§1) Topical Application of 1,25-dihydroxyvitamin D3: • 1,25-Dihydroxyvitamin D3 was dissolved in absolute ethanol and applied topically with an applicator. Control animals were similarly treated with the same amount of ethanol. Animals were then kept individually separated for a period of three hours following which the treated area was carefully washed with soap and water and dried. Treatment was given daily beginning on day 5 after birth and ending on day 10.\n(§2) Chemotherapy: • All chemotherapies were given I.P. and started at 11 days of age. CTX, 35 mg/kg, was given for one day only. VP-16, 1.5 mg/kg, was given for three days. For CTX and ADM combination, CTX, 25 mg/kg was given for one day and ADM, 2.5 mg/kg, for three days. At these doses neither CTX nor ADM alone will produce alopecia. Alopecia was recorded on the tenth day from beginning chemotherapy.\nA total of 4 experiments were carried out. […]"}, "VP-16-induced alopecia": {"system": "VP-16-induced alopecia", "assay": "VP-16 (Etoposide)-induced alopecia in young rats", "type": "in vivo", "experimental": "Twelve 7 day old rats were randomized in two groups. Group I was treated daily with buffer 0.1 ml s.c. for four days. The second Group was treated daily with Vitamin D3 50µg s.c. over head for four days. After stopping the buffer or Vitamin D3 treatment, all rats received 1.5 mg/kg i.p. of VP-16 (Etoposide) daily for three days.\nas §1\nas §2, with “At these doses neither CTX nor ADM alone will produce alopecia.” left out\nA total of 4 experiments were carried out. In the first experiment, protection from Cytoxan-induced alopecia was examined. The experimental group was pretreated with 0.2 µg of 1,25-dihydroxyvitamin D, in 0.15 ml of absolute ethanol applied topically over the head and neck and the control group received 0.15 ml of alcohol. […] The second experiment was carried out under similar conditions to examine protection from VP-16-induced alopecia. […] The third experiment was designed to examine protection from alopecia induced by Cytoxan-Adriamycin combination. There were 11 rats in each group. […] In the fourth experiment, protection from VP-16-induced alopecia was similarly examined except that the dose of 1,25-dihydroxyvitamin D3 was reduced to 0.1 µg in 0.1 ml absolute ethanol applied topically over the head area only.\nas §1, with “RO 23-7553 (1,25 dihydroxy-16-ene-23-yne-cholecalciferol)” for “Topical Application of 1,25-dihydroxyvitamin D3: • 1,25-Dihydroxyvitamin D3”, “9” for “5”, “14.” for “10.”\nOn day 15 all animals received VP-16, 1.5 mg/kg i.p., for three days. Alopecia was recorded on day 25.\nThirteen rats were randomized in two groups. Experimental group, 7 rats; control group, 6 rats. The experimental group was pretreated with 1 µg of RO 23-7553 in 0.2 ml absolute ethanol applied topically over the neck and back and the control group received 0.2 ml of absolute ethanol."}, "Cytoxan-induced alopecia": {"system": "Cytoxan-induced alopecia", "assay": "Cytoxan-induced alopecia in young rats", "type": "in vivo"}, "hair growth [2]": {"system": "hair growth", "assay": "Stimulation of hair regrowth on the shaven back of rats", "type": "in vivo, Sprague Dawley rats", "experimental": "The backs of nineteen 25 day old Sprague Dawley rats were shaven and randomized in two groups.\nGroup I (control 10 rats) received 0.1 ml of ethanol applied topically once daily to the shaven area for 14 days.\nGroup II (Calcitriol 9 rats) received 50 ng of 1,25-dihydroxyvitamin D3 in 0.1 ml of ethanol applied topically once daily to the shaven area for 14 days.\nOn day 15 stimulation of hair regrowth was assessed by reshaving an area 6 cm x 6 cm in diameter. The hair was collected and weighed. The difference between two groups was highly statistically significant. P. value 0.003 (see Table III and Figure 11)."}, "hair growth [3]": {"system": "hair growth", "assay": "Stimulation of hair regrowth on the shaven back of rats", "type": "in vivo, Sprague Dawley rats", "conditions": "observation in treated rats during the chemotherapy-induced alopecia studies"}, "[4]": {"system": "EGF receptors on breast cancer cells", "conditions": "cited from earlier work"}, "[5]": {"system": "EGF receptors on a cell line established from rat calvaria", "conditions": "cited from earlier work"}, "ARA-C-induced alopecia": {"system": "ARA-C-induced alopecia", "assay": "ARA-C-induced alopecia in young rats", "type": "in vivo, Sprague Dawley rats", "conditions": "Alopecic drug Cytarabine (ARA-C) 50 mg/kg i.p. daily for 7 days, 50 µg daily i.p. or s.c. for 4 days prior to chemotherapy, 1 experiment, 8 animals, uniformly observed in all treated animals", "experimental": "Sprague Dawley rats were purchased from Charles River Laboratories, Wilmington, MA. Cytosar-U (ARA-C) was from the Upjohn Company, Kalamazoo, MI. Receptor grade EGF from mouse submaxillary glands, human recombinant EGF, dimethyl sulfoxide (DMSO) and Vitamin D3 were purchased from Sigma Chemical Co., St. Louis, MO. aFGF was purchased from AMGEN Corp., Thousand Oaks, CA.\nAll rats from each experiment were treated with ARA-C 50 mg/kg intraperitoneally (i.p.) daily for 7 days. For subcutaneous (s.c.) injections, EGF and FGF were prepared in PBS 1% BSA. Alopecia was always recorded on day 12 of experiment, and scored as previously described (Hussein et al, Science, 249:1564-1566, 1990; Jimenez et al, FASEB J., 1991).\nFor topical treatment, murine EGF was prepared as follows: One vial of EGF (100 µg) was dissolved in 0.2 ml of PBS 1% BSA and 0.12 ml of this solution was added to 0.48 of DMSO. Three hours prior to ARA-C injection, 0.1 ml of the EGF-DMSO mixture was applied to each rat over a 1 cm^2 area between the shoulders using a rubber tip applicator. Rats were then kept individually separated for a period of three hours, following which the treated area was carefully washed with soap and water and dried. Treatment was continued for 7 days. […]\nFourteen 7-day old rats were randomized in two groups. […] Alopecia was recorded on day 12 of experiment. […]"}}, "note": "Several values for one entry are separate records, joined by “and”; a condition that tells them apart may be missing. Equal values may be shown once. Entries after “also recorded” stand apart in the source; their conditions may differ.", "data": [{"smiles": "C=C1/C(=C\\C=C2/CCC[C@]3(C)[C@@H]([C@H](C)CCCC(C)(C)O)CC[C@@H]23)C[C@@H](O)C[C@@H]1O", "note": "[1,25-dihydroxyvitamin D3]", "values": [{"measurement": "protection from alopecia induced by Cytoxan-Adriamycin combination", "setting": "[1]; pretreatment 0.2 µg in 0.15 ml absolute ethanol topically over head and neck, CTX 25 mg/kg one day and ADM 2.5 mg/kg three days I.P., 11 rats, all rats", "result": "protected"}, {"measurement": "protection from VP-16-induced alopecia", "setting": "VP-16-induced alopecia; applied topically 0.5 µg daily in 50% ethanol or DMSO", "result": "protected"}, {"measurement": "protection from VP-16-induced alopecia", "setting": "VP-16-induced alopecia; pretreatment 0.1 µg in 0.1 ml absolute ethanol topically over the head area only, VP-16 1.5 mg/kg I.P. for three days, all rats", "result": "protected primarily at the site of 1,25-dihydroxyvitamin D3 application; also recorded: less generalized and was more limited to the site of application"}, {"measurement": "protection from VP-16-induced alopecia", "setting": "VP-16-induced alopecia; pretreatment 0.2 µg in 0.15 ml absolute ethanol topically over head and neck, VP-16 1.5 mg/kg I.P. for three days, recorded on tenth day, all rats", "result": "protected; also recorded: not limited to the site of application but involved the entire body"}, {"measurement": "protection from Cytoxan-induced alopecia", "setting": "Cytoxan-induced alopecia; pretreatment 0.2 µg in 0.15 ml absolute ethanol topically over head and neck, day 5 to day 10 after birth, CTX 35 mg/kg I.P. one day, recorded on tenth day, all animals", "result": "protected"}, {"measurement": "Hair Weight, Mean S.E.M.", "setting": "hair growth [2]; 50 ng in 0.1 ml ethanol topically once daily for 14 days, 9 rats, day 15, P. value 0.003 versus control (113 ± 8)", "result": "164 ± 13", "unit": "Mg."}, {"measurement": "Hair Weight (individual rats)", "setting": "hair growth [2]; 50 ng in 0.1 ml ethanol topically once daily to the shaven area for 14 days, reshaved area 6 cm x 6 cm on day 15, listed as Calcitriol", "result": "135 Mg. and 202 Mg. and 143 Mg. and 150 Mg. and 253 Mg. and 130 Mg. and 177 Mg. and 140 Mg. and 147 Mg."}, {"measurement": "coat of hair and hair length in the treated area", "setting": "hair growth [3]", "result": "better coat of hair and longer hair in the treated area"}, {"measurement": "effect on EGF receptors on breast cancer cells", "setting": "[4]", "result": "increase"}, {"measurement": "effect on EGF receptors on a cell line established from rat calvaria", "setting": "[5]", "result": "increase"}]}, {"smiles": "C=C1/C(=C\\C=C2/CCC[C@]3(C)C([C@H](C)CC#CC(C)(C)O)=CC[C@@H]23)C[C@@H](O)C[C@@H]1O", "note": "[RO 23-7553, 1,25 dihydroxy-16-ene-23-yne-cholecalciferol]", "values": [{"measurement": "protection from VP-16-induced alopecia", "setting": "VP-16-induced alopecia; pretreatment 1 µg in 0.2 ml absolute ethanol topically over neck and back, day 9 to day 14 after birth, VP-16 1.5 mg/kg i.p. three days from day 15, recorded on day 25, 7 rats, all animals", "result": "protected"}]}, {"smiles": "C=C1CC[C@H](O)C/C1=C/C=C1\\CCC[C@]2(C)[C@@H]([C@H](C)CCCC(C)C)CC[C@@H]12", "note": "[Vitamin D3]", "values": [{"measurement": "Protection from alopecia", "setting": "ARA-C-induced alopecia", "result": "excellent protection and Yes*"}, {"measurement": "Protection from alopecia", "setting": "[1]; Adriamycin 2.5 mg/kg i.p. daily for 3 days plus Cytoxan 25 mg/kg single injection, 50 µg daily i.p. or s.c. for 4 days prior to chemotherapy, 6 experiments, 77 animals, uniformly observed in all treated animals", "result": "excellent protection and Yes*"}, {"measurement": "Protection from alopecia", "setting": "VP-16-induced alopecia; 50µg s.c. over head daily for four days, then VP-16 1.5 mg/kg i.p. daily for three days, 7 day old rats", "result": "protected"}, {"measurement": "Protection from alopecia", "setting": "VP-16-induced alopecia; Alopecic drug Etoposide (VP-16) 1.5 mg/kg i.p. daily for 3 days, 50 µg daily i.p. or s.c. for 4 days prior to chemotherapy, 2 experiments, 22 animals, uniformly observed in all treated animals", "result": "excellent protection and Yes*"}, {"measurement": "Protection from alopecia", "setting": "Cytoxan-induced alopecia; Alopecic drug Cytoxan (CTX) 32.5 mg/kg single injection, 50 µg daily i.p. or s.c. for 4 days prior to chemotherapy, 7 experiments, 89 animals, uniformly observed in all treated animals, 32.5 mg/kg", "result": "excellent protection and Yes*"}]}]}
